Measurements reported in patent US5494927A, “3,5-di-tertiarybutyl-4-hydroxyphenylmethylene derivatives of 2-substituted thiazolidinones, oxazolidinones, and imidazolidinones as antiinflammatory agents” (priority 1994, dated 1996).
“And” between values parts separate entries of the source, which are not always exact repeats. Equal entries are not always repeated. Structures can show the parent of a compound that is named as a salt.

How the values were obtained:
5-lipoxygenase = molecular target: T1, 5-lipoxygenase (Rattus norvegicus, UniProt P12527); experiment: ARBL whole cell 5-lipoxygenase assay (LTB4 formation in RBL-1 cells); type: cell-based; settings: for IC50: A23187 stimulated, read-out: ARBL IC50 for LTB4 inhibition; for inhibition at 10 µM: read-out: ARBL % inhibition of LT
T1 construct: host or cells: RBL-1 rat basophilic leukemia cells
T1 sequence (P12527 1-673): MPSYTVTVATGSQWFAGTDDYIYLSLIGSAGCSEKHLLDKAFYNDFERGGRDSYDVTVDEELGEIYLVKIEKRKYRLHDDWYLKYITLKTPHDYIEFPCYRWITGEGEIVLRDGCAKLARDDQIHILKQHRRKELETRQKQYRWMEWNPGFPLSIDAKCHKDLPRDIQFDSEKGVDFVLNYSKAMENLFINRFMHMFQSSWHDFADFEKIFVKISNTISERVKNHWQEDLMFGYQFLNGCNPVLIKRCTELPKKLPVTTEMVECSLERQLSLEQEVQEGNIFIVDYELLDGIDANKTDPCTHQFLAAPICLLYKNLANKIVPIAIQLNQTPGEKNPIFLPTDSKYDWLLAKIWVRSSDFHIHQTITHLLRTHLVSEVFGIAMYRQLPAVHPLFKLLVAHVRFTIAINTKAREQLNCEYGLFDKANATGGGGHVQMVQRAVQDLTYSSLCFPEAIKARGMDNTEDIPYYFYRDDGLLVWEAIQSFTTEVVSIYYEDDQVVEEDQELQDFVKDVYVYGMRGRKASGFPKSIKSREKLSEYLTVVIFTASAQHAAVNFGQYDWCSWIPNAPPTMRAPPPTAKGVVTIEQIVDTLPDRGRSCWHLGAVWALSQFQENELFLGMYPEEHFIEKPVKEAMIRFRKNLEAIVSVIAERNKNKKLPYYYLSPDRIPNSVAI
Procedure: (§1) ARBL/ARBC WHOLE CELL 5-LIPOXYGENASE AND CYCLOOXYGENASE ASSAYS
(§2) The rat basophilic leukemia cell line (RBL-1) was obtained from the American Type Culture Collection (Rockville, Md.).
(§3) Radioimmunoassay (RIA) kits of LTB4 and PGF2.sbsb.α were obtained from Amersham (Arlington Heights, Ill.) and Seragen (Boston, Me.), respectively.
(§4) All tissue culture media were obtained from GIBCO (Grand Island, N.Y.).
(§5) RBL-1 cells are grown in suspension culture in Eagle's minimum essential medium supplemented with 12% fetal bovine serum at 37° C. in an incubator supplied with air-5% carbon dioxide. Cells are harvested by centrifugation. They are washed with cold phosphate buffered saline pH 7.4 (PBS; NaCl, 7.1 g; Na2 HPO4, 1.15 g; KH2 PO4, 0.2 g; and KCl, 0.2 g/L). Cells are finally suspended in PBS containing 1.0 mM calcium at a density of 2×10^6 cells/mL. Cells are incubated with and without test agent (in DMSO) (1% DMSO is without effect on arachidonic acid metabolism) for 10 minutes at room temperature. Calcium ionophore A23187 (5 μM) is added and cells are incubated for 7 minutes at 37° C. The reaction is stopped by chilling the tubes on ice for 10 minutes. Cells are separated by centrifugation and the supernatant is stored at -20°. Aliquots (100 μL) are analyzed for LTB4 and PGF2.sbsb.α using radioimmunoassay kits as provided by the supplier.
(§6) Table I contains biochemical data obtained from this whole cell assay as IC50 s which are calculated as the amount of test compound causing 50% inhibition or % of inhibition at the named micromoles (μM) of LTB4 or PGF2.sbsb.α formation.

cyclooxygenase = experiment: ARBC whole cell cyclooxygenase assay (PGF2α formation in RBL-1 cells); type: cell-based, rat; settings: for IC50: A23187 stimulated; for ARBC % inhibition of PGF2α: @ 10 μM
Procedure: as §1, §2, §3, §4, §5, §6

[1] = system: carrageenan-induced rat foot paw edema; experiment: Carrageenan-induced rat foot paw edema-2 (CFE-2) assay; type: in vivo; settings: dosed 1 hour before carrageenan, edema at 5 hours
Procedure: Carrageenan-Induced Rat Foot Paw Edema-2
CARRAGEENAN-INDUCED RAT FOOT PAW EDEMA-2 (CFE-2) ASSAY: PROTOCOL
Carageenan solution (1% w/v) is prepared by dissolving 100 mg carrageenan (Marine Colloidal Div., Springfield, N.J.) in 10 mL of sterile saline (0.9%) solution (Travenol). The solution is vortexed for 30 to 45 minutes. Animals are dosed with compound 1 hour before carrageenan challenge. Foot paw edema is induced by injecting 0.10 mL of the 1% carrageenan subcutaneously into the plantar portion of the right hind paw of each rat under light anesthesia. Initial foot paw volume is measured immediately following carrageenan challenge using mercury plethysmography (Buxco Electronics). Edema is measured 5 hours after carrageenan. The difference between the 5-hour and the initial paw volume is expressed as delta edema. The delta edema for each test group of animals is used to calculate the percent inhibition of edema achieved by the compound at the test dose compared with the vehicle control group. The data in Table I (the dose at which swelling is inhibited by the noted percent) is calculated by probit analysis for the dose at which percent inhibition occurs.

[2] = system: Mycobacterium-induced rat footpad edema; experiment: Mycobacterium-induced rat footpad edema assay (MFE); type: in vivo; settings: for ED40: Rattus norvegicus, swelling 72 hours after Mycobacterium injection, read-out: MFE ID40 (dose at which swelling is inhibited by 40%); for MFE % inhibition of swelling: 72 hours
Procedure: MYCOBACTERIUM-INDUCED RAT FOOTPAD EDEMA ASSAY (MFE): PROTOCOL
Mycobacterium butyricum (5 mg/mL) is suspended in paraffin oil by sonication for 10 minutes in an ice bath. Footpad edema is induced on Day 0 by injecting 0.1 mL of the Mycobacterium mixture into the left hindpaw of lightly anesthetized rats. Swelling in the injected hindpaw is determined by mercury plethysmography 72 hours after injection. Groups of rats are treated with test compounds (suspended in 0.5% hydroxypropyl methylcellulose with 0.2% Tween-80) or vehicle 1 hour before Mycobacterium injection and on Days 1 and 2. Inhibition of swelling is determined by comparing the change in hindpaw volume in compound- and vehicle-treated rats. An ID40 (the dose at which swelling is inhibited by 40%) is calculated by probit analysis or shown as the % inhibition at the dose expressed as μM, i.e., % at μM.

gastric ulcers in rats = experiment: Gastric ulcerogenicity (UD); type: in vivo, Wistar rats; design: key: N is not active at the dose tested; settings: @ 200; oral, fasted rats, 6 hours
Procedure: GASTRIC ULCEROGENICITY (UD): PROTOCOL
Male outbred Wistar rats (100-250 g) are fasted for 24 hours. After fasting, test compounds are administered orally (in 2 mL/kg of 0.5% hydroxypropyl methylcellulose) and the rats are denied access to food and water for 6 more hours. The rats are then sacrificed with CO2 so that the stomachs can be removed, opened along the greater curvature, and evaluated for the presence of gastric ulcers. Results are expressed as the percent of rats with gastric ulcers at a given dose or as the UD50 (the dose which causes ulcers in 50% of the rats).

| Compound | IC50 (5-lipoxygenase) | IC50 (cyclooxygenase) | CFE % inhibition of edema ([1]; @ 10) | ARBC % inhibition of PGF2α (cyclooxygenase) | inhibition at 10 µM (5-lipoxygenase) | CFE % inhibition of edema ([1]; @ 30) | other results |
| --- | --- | --- | --- | --- | --- | --- | --- |
| 5-[[3,5-Bis(1,1-dimethylethyl)-4-hydroxylphenyl]methylene]-2-[[2-(dimethylamino)ethyl]amino-4(5H-thiazolone, (Z)- [Example 10] | – | – | – | 87% | – | – | – |
| CC(C)(C)c1cc(/C=C2\SC(N)=NC2=O)cc(C(C)(C)C)c1O [Example 1B, 5-[[3,5-Bis(1,1-dimethylethyl)-4-hydroxyphenyl]methylene]-2-imino-4-thiazolidinone, (Z)-, methanesulfonate (1:1) salt] | – | – | – | 80% | 100% | – | ED40 [2]: < 10 mg/kg; Gastric Ulcerogenicity UD50 (gastric ulcers in rats): N |
| CC(C)(C)c1cc(/C=C2\SC(=NO)NC2=O)cc(C(C)(C)C)c1O [Example 4, 5-[[3,5-bis(1,1-dimethylethyl)-4-hydroxyphenyl]methylene]-2,4-thiazolidinedione, 2-oxime (Z)-] | – | – | 32% | 81% | 100% | 17% | – |
| CC(C)(C)c1cc(/C=C2\SC(=NNC(N)=S)NC2=O)cc(C(C)(C)C)c1O [Example 7, 2-[5-[[3,5-Bis(1,1-dimethylethyl)-4-hydroxyphenyl]methylene]-4-oxo-2-thiazolidinylidene]hydrazine-carbothiamide, (Z)-] | 390 nM | 4550 nM | – | – | – | – | – |
| CC(NC1=NC(=O)C(=Cc2cc(C(C)(C)C)c(O)c(C(C)(C)C)c2)S1)C(=O)O (centres unmarked) [Example 12] | – | – | – | 55% | 100% | – | – |

The next lines start with results.

| IC50 (5-lipoxygenase) | IC50 (cyclooxygenase) | Compound | CFE % inhibition of edema ([1]; @ 10) | ARBC % inhibition of PGF2α (cyclooxygenase) | inhibition at 10 µM (5-lipoxygenase) | CFE % inhibition of edema ([1]; @ 30) | other results |
| --- | --- | --- | --- | --- | --- | --- | --- |
| 1700 nM | 330 nM | CON(C)C1=NC(=O)/C(=C/c2cc(C(C)(C)C)c(O)c(C(C)(C)C)c2)S1 | 41% | – | – | – | ED40 [2]: 13.2 mg/kg |
| 500 nM and 800 nM | < 600 nM | CSC1=NC(=O)/C(=C/c2cc(C(C)(C)C)c(O)c(C(C)(C)C)c2)S1 [Example 5, 5-[[3,5-Bis(1,1-dimethylethyl)-4-hydroxyphenyl]methylene]-2,(methylthio)-4(5H)-thiazolone, (Z)-] | 36% | – | – | 47% | MFE % inhibition of swelling ([2]; @ 2): 27%; MFE % inhibition of swelling ([2]; @ 50): 23% |
| – | 160 nM | CC(C)(C)c1cc(C=C2SC(NC#N)=NC2=O)cc(C(C)(C)C)c1O [Example 9, [5-[[3,5-Bis(1,1-dimethylethyl)-4,hydroxyphenyl]methylene]-4,5-dihydro-4-oxo-2-thiazolyl]cyanamide] | – | – | – | 49% | MFE % inhibition of swelling ([2]; @ 3): 32% |
